Results on three compounds are retold here after PMC7794379, “Thioesterase-mediated side chain transesterification generates potent Gq signaling inhibitor FR900359” (Nature Communications, 2021).

Data set [1] addresses T1, wild type Gαq in HEK Gαq/Gα11-null cells (Homo sapiens, UniProt P50148).
T1 construct: expressed in transfected cells; host or cells: CRISPR/Cas9-edited HEK293 Gαq/Gα11-null cells
T1 sequence (P50148 1-359): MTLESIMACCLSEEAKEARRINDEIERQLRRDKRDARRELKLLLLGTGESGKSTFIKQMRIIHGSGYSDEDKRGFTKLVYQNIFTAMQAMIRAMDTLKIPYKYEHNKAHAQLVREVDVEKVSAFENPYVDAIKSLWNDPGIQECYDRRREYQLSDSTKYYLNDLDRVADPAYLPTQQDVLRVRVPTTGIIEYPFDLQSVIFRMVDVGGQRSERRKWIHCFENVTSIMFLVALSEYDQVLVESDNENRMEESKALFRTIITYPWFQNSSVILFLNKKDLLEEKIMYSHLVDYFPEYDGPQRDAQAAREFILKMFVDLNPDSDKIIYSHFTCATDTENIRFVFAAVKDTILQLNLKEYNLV
The experiment in a line: DMR (dynamic mass redistribution) inhibition of carbachol (CCh 100 µM) response in Gαq-transfected HEK293 Gαq/Gα11-null cells. Format: cell-based. The note with it: compounds added 1 h before, 37 °C, mean ± s.e.m. of n independent replicates in technical triplicates (FR n=11, FR-Core n=4, FR-5 n=4), read-out: pIC50 (Gαq inhibition, DMR) (converted). The method, then:
Label-free dynamic mass redistribution (DMR) assay
Cell culture materials were purchased from Invitrogen (Carlsbad, CA, USA). Generation of genetically engineered HEK293 cells using CRISPR/Cas9 technology to knockout the subunits of Gαq and Gα11 (Gαq/Gα11-null cells) is described elsewhere. Cells were maintained in Dulbecco’s modified Eagle’s medium (DMEM) supplemented with 10% (v/v) fetal calf serum (FCS, PAN biotech, Germany), penicillin (100 units/mL), and streptomycin (0.1 mg/mL), and kept in a humidified atmosphere with 5% CO2 at 37 °C. All cell lines were screened by PCR on a monthly basis for mycoplasma contamination and were tested negative. DMR measurements were performed analogous to prior studies[39],[40] using the Epic DMR reader (Corning, NY, USA) together with the Cybi-SELMA semi-automated electronic pipetting system (Analytik Jena AG, Jena, Germany). 24 h after transfection with the G protein αq subunit, HEK293 cells were counted and seeded on 384-well fibronectin-coated biosensor plates at a density of 17,000 cells per well. On the next day, cells were washed twice with Hanks’ buffered salt solution containing 20 mM HEPES (HBSS + HEPES) and incubated for 1 h at 37 °C in the EPIC reader. 1, 2, 3 or 7 in HBSS + HEPES were added 1 h before the measurement. The sensor plate was scanned to record a baseline optical signature (no change in basal DMR), and after the addition of compounds, DMR alterations were monitored for 3000 s at 37 °C. All data were analyzed using GraphPad Prism 8.0.0 (GraphPad Inc, La Jolla, CA, USA). Quantification of DMR signals was performed by calculation of the maximum responses. […]
Concentration-effect curves in Fig. 4a–c were normalized by setting each experimental maximal effect as 100% response. All data are expressed as mean + or ± standard error of the mean (s.e.m.) of at least three independent experiments performed in technical triplicates. […]
Supplementary Table 6: Quantification of FR, FR-Core and FR-5 inhibitory activities at wild type Gαq in HEK Gαq/Gα11-null cells. […]

Data set [2] concerns the target T2, Gαq proteins (human platelet membrane preparations) (Homo sapiens, UniProt P50148).
T2 construct: human platelet membrane preparations that natively express Gαq proteins; from tissue; host or cells: human platelet membrane preparation
T2 sequence (P50148 1-359): T1 sequence (P50148 1-359)
Nature of the data set: Competition binding vs [³H]PSB-15900 at human platelet membrane preparations. Conditions: vs 5 nM [³H]PSB-15900; 50 µg protein; 50 mM Tris pH 7.4; 37 °C, 1 h; read-out: pIC50 (competition binding) (converted). The method, then: Competition binding assay
Competition binding assays of 1 and 2 were conducted versus the radiolabeled FR derivative [³H]PSB-15900 utilizing human platelet membrane preparations that natively express Gαq proteins. The experiments were performed in 50 mM Tris, pH=7.4, in a final assay volume of 200 µl. Each assay tube contained 50 µl [³H]PSB-15900 solution in the buffer (final concentration: 5 nM), 50 µl of human platelet membrane preparation in buffer (50 µg of protein), 95 µl of buffer, and 5 µl of 1 or 2 solution, respectively, in varying concentrations dissolved in DMSO. Non-specific-binding was determined in the presence of 5 µM FR dissolved in DMSO. Incubation was performed at 37 °C for 1 h with gentle shaking and was started by the addition of the membrane preparation. The incubation was terminated by rapid filtration through GF/C glass fiber filters using a Brandel 24-well-harvester. Filters were dried, punched out, transferred to scintillation vials, and incubated for at least 6 h in scintillation cocktail (2.5 ml ProSafe FC+®, Meridian Biotechnologies Ltd, UK) prior to measurement in a liquid scintillation counter at an efficiency of 53%. Data were evaluated using GraphPad Prism 7 (GraphPad Inc., San Diego, CA, USA), and IC50 values were determined by the One site – Fit logIC50-equation.

The test system of the next data set is Riptortus pedestris. Nature of the data set: Oral feeding toxicity, survival rate of first instar stinkbug nymphs. The format is in vivo. The note with it: 40 µM, nine days. The method, then: Feeding and effect determination of 1 and 2 on insects
A small cotton pad soaked with 500 µl of 1 or 2-containing water was served to first instar nymphs of the stinkbug R. pedestris for oral intake. For feeding, 1 and 2 were each dissolved in 100% MeOH and diluted with water to concentrations of 0.2, 0.04, and 0.02 µg/µl. Distilled water containing 2% MeOH was used as control. Each experiment included 20 stinkbug individuals. Insects were reared in a moisture chamber at 25 °C under a long day regimen (16 h light, 8 h dark), supplied with dried soybean seeds. The 1 or 2-containing water was exchanged every 3 d, and the survival rate was monitored every day at the same time for 9 d.
Please select the one below that is the best fit for your research. If you are not sure, read the appropriate sections before making your selection. […]
Sample size Sample size: 7 groups of each 20 animals were treated with control (1 group) and two different compounds at 3 different concentrations (6 groups). […] Sample size (size of group) was determined based on standard laboratory practice, and the available amount of the compounds for the experiments. […]
We require information from authors about some types of materials, experimental systems and methods used in many studies. […] If you are not sure if a list item applies to your research, read the appropriate section before selecting a response. […]

*1 amine or outer side, *2 acyl side, *3 side chain or, on linkers, in order; H or OH if unused. Where a SMILES comes first, the peptide text is derived from it. Bridges are numbered along the chain shown (N, C = ends). [ ]: non-standard residue; d: D form. The star is where a group is joined. Leu(3R-OH,Nα-propionyl) = CCC(=O)N[C@H](C(=O)*)[C@H](O)C(C)C; X1 = CC(C)[C@@H](O[*:3])[C@H](N[*:1])C(=O)[*:2]; Leu(3R-OH) = CC(C)[C@@H](O)[C@H](N)C(=O)O; X2 = CCCC(=O)N[C@H](C(=O)*)[C@H](O)C(C)C; NMeT = CN[C@H](C(=O)O)[C@@H](C)O; dPhLac = O=C(O)[C@H](O)Cc1ccccc1; NMeA = CN[C@@H](C)C(=O)O; NMeDha = C=C(NC)C(=O)O

Consider `C=C1C(=O)N[C@@H](C)C(=O)N(C)[C@@H](C)C(=O)N[C@@H]([C@H](OC(=O)[C@@H](NC(=O)CCC)[C@H](O)C(C)C)C(C)C)C(=O)N(C)[C@@H]([C@@H](C)OC)C(=O)O[C@H](C(C)C)[C@H](NC(C)=O)C(=O)O[C@H](Cc2ccccc2)C(=O)N1C` [FR-5] (Ac-[X1][dPhLac][NMeDha]A[NMeA][X1](X2)[NMeT](Me); ester 1-C), for which the IC50 in data set [1] was 3160 nM.

As to `C=C1C(=O)N[C@@H](C)C(=O)N(C)[C@@H](C)C(=O)N[C@@H]([C@H](O)C(C)C)C(=O)N(C)[C@@H]([C@@H](C)OC)C(=O)O[C@H](C(C)C)[C@H](NC(C)=O)C(=O)O[C@H](Cc2ccccc2)C(=O)N1C` [FR-Core] (Ac-[X1][dPhLac][NMeDha]A[NMeA][Leu(3R-OH)][NMeT](Me); ester 1-C), the IC50 in data set [1] is 7410 nM; in data set [2], 2750 nM.

`C=C1C(=O)N[C@@H](C)C(=O)N(C)[C@@H](C)C(=O)N[C@@H]([C@H](OC(=O)[C@@H](NC(=O)CC)[C@H](O)C(C)C)C(C)C)C(=O)N(C)[C@@H]([C@@H](C)OC)C(=O)O[C@H](C(C)C)[C@H](NC(C)=O)C(=O)O[C@H](Cc2ccccc2)C(=O)N1C` [FR] (Ac-[X1][dPhLac][NMeDha]A[NMeA][X1](Leu(3R-OH,Nα-propionyl))[NMeT](Me); ester 1-C): the IC50 was 457 nM in data set [1] and 13.2 nM in data set [2]. In addition, the “lethality in words, lower concentration” value in the data set on Riptortus pedestris is on record as “lethal effects”.
